# Measured values as given in publication PMC10394347 (Chinese Herbal Medicines, 2023).
# pKd: −log10 of the molar value.
# Biological target: AKT (PH domain) (Homo sapiens, UniProt P31749)
# Test: intrinsic fluorescence quenching
# Assay type: binding
# AKT (PH domain), sequence (P31749 1-123): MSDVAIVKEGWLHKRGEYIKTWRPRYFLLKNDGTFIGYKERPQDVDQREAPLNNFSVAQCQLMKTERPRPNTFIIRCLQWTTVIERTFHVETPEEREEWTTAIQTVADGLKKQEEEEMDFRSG
row,SMILES,pKd
1,"COc1cc(/C=C/C(=O)O)ccc1O[C@@H]1O[C@H](C(=O)O)[C@@H](O)[C@H](O)[C@H]1O [FA4G, ferulic-4′-O-glucuronide]",4.32
2,"O=C(O)/C=C/c1ccc(O)c(O)c1 [CA, caffeic acid]",3.74
3,"O=C(O)/C=C/c1ccc(O[C@@H]2O[C@H](C(=O)O)[C@@H](O)[C@H](O)[C@H]2O)c(O)c1 [CA4G, caffeic-4′-O-glucuronide]",4.42
4,"COc1cc(/C=C/C(=O)O)ccc1O [FA, ferulic acid]",3.73
